How the values were obtained:
Experiment in all cases: relative viability (nuclei count vs DMSO), 5 days (fraction); higher = more cells survive
[1] = compound: C1=CC2=NC=CN=C2C=C1/C=C/3\C(=O)NC(=O)S3 + O=C(c1cc(Cc2n[nH]c(=O)c3ccccc23)ccc1F)N1CCN(C(=O)C2CC2)CC1 [Olaparib] (partner 8 µM)
How it was run: (§1)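 Lung cancer cell lines were seeded in 1536-well plates and dosed by pin tool the next day, with either a single drug or a fixed anchor-drug dose combined with five library-drug doses (not always all listed) spaced in √10 steps. Five days later, one step fixed the cells and stained their nuclei (final 0.05% Triton X-100, 1% formaldehyde, 1 ug/ml Hoechst), and nuclei were counted on 4× images. Relative viability is the nuclei count in treated wells divided by the count in vehicle wells, and each value is the median of duplicate plates.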

BGJ398 + Linsitinib = compound: CCN1CCN(c2ccc(Nc3cc(N(C)C(=O)Nc4c(Cl)c(OC)cc(OC)c4Cl)ncn3)cc2)CC1 [BGJ398] + C[C@]1(O)C[C@@H](c2nc(-c3ccc4ccc(-c5ccccc5)nc4c3)c3c(N)nccn32)C1 [Linsitinib] (partner 1 µM)
How it was run: as §1

BGJ398 + Bortezomib = compound: CCN1CCN(c2ccc(Nc3cc(N(C)C(=O)Nc4c(Cl)c(OC)cc(OC)c4Cl)ncn3)cc2)CC1 [BGJ398] + CC(C)C[C@H](NC(=O)[C@H](Cc1ccccc1)NC(=O)c1cnccn1)B(O)O [Bortezomib] (partner 0.002 µM)
How it was run: as §1

[2] = compound: C1=CC2=NC=CN=C2C=C1/C=C/3\C(=O)NC(=O)S3 + Cc1nc(NC(=O)N2CCC[C@H]2C(N)=O)sc1-c1ccnc(C(C)(C)C(F)(F)F)c1 [Alpelisib] (partner 2 µM)
How it was run: as §1

| Cell Line | relative viability ([1]; first compound 0.02 µM) | relative viability ([1]; first compound 0.06325 µM) | relative viability ([1]; first compound 0.2 µM) | relative viability ([1]; first compound 0.6325 µM) | relative viability ([1]; first compound 2 µM) | relative viability (BGJ398 + Linsitinib; first compound 0.01 µM) | relative viability (BGJ398 + Linsitinib; first compound 0.03162 µM) | relative viability (BGJ398 + Linsitinib; first compound 0.1 µM) | relative viability (BGJ398 + Linsitinib; first compound 0.3162 µM) | relative viability (BGJ398 + Linsitinib; first compound 1 µM) | relative viability (BGJ398 + Bortezomib; first compound 0.01 µM) | relative viability (BGJ398 + Bortezomib; first compound 0.03162 µM) | relative viability (BGJ398 + Bortezomib; first compound 0.1 µM) | relative viability (BGJ398 + Bortezomib; first compound 0.3162 µM) | relative viability (BGJ398 + Bortezomib; first compound 1 µM) | relative viability ([2]; first compound 0.02 µM) | relative viability ([2]; first compound 0.06325 µM) | relative viability ([2]; first compound 0.2 µM) | relative viability ([2]; first compound 0.6325 µM) | relative viability ([2]; first compound 2 µM) |
| --- | --- | --- | --- | --- | --- | --- | --- | --- | --- | --- | --- | --- | --- | --- | --- | --- | --- | --- | --- | --- |
| HCC-44 | 0.9 | 1.07 | 0.924 | 0.965 | 0.945 | 0.63 | 0.616 | 0.7 | 0.76 | 0.629 | 0.938 | 0.84 | 0.869 | 0.828 | 0.713 | 0.693 | 0.893 | 0.852 | 0.764 | 0.745 |
| HCC-827 | 0.654 | 0.528 | 0.585 | 0.593 | 0.662 | 0.95 | – | 0.872 | 0.942 | 0.989 | 0.942 | 0.945 | 1.08 | 0.972 | 0.973 | 1.05 | 0.947 | 1.04 | 0.925 | 0.911 |
| NCI-H2347 | 0.528 | 0.583 | 0.553 | 0.635 | 0.543 | 0.989 | 1.08 | 0.975 | 0.968 | 1 | 0.737 | 0.835 | 0.9 | 0.88 | 0.784 | 1.02 | 1.09 | 1.08 | 1.07 | 1.02 |
| PC-14 | 0.25 | 0.363 | 0.263 | 0.227 | 0.277 | 0.902 | 1.05 | 0.902 | 1 | 1.06 | 0.952 | 0.85 | 0.791 | 0.868 | 0.878 | 0.959 | 0.973 | 0.932 | 0.894 | 0.863 |
| NCI-H1651 | 0.181 | 0.154 | 0.183 | 0.178 | 0.188 | 0.874 | 0.938 | 1.05 | 1.04 | 0.895 | 0.909 | 0.932 | 1.05 | 1 | 0.911 | 0.888 | 1.03 | 0.986 | 0.937 | 0.996 |
| HARA | 0.899 | 0.54 | 0.687 | 1.06 | 0.615 | 0.845 | 0.856 | 0.903 | 0.978 | 0.902 | 1.15 | 1.05 | 1.13 | 1.08 | 0.978 | 0.749 | 0.696 | 0.844 | 0.806 | 0.859 |
| NCI-H1650 | 0.689 | 0.825 | 0.845 | 0.735 | 0.927 | – | – | – | – | – | 0.22 | 0.203 | 0.184 | 0.174 | 0.19 | – | – | – | – | – |
| NCI-H1395 | 0.43 | 0.427 | 0.464 | 0.5 | 0.438 | 1.15 | 1.24 | 0.977 | 0.939 | 0.797 | – | – | – | – | – | 0.934 | 1.14 | 1.32 | 0.922 | 1.39 |
| LU99A | 0.28 | 0.416 | 0.276 | 0.243 | 0.26 | 0.524 | 0.47 | 0.575 | 0.51 | 0.441 | 1.08 | 1.23 | 1.23 | 1.13 | 1.09 | 0.575 | 0.562 | 0.607 | 0.501 | 0.393 |
| NCI-H1355 | 0.656 | 0.766 | 0.77 | 0.699 | 0.726 | 0.741 | 0.807 | 0.827 | 0.779 | 0.823 | 1.05 | 1.27 | 1.2 | 1.15 | 0.603 | 0.67 | 0.776 | 0.864 | 0.773 | 0.751 |
| HCC-78 | 0.792 | 0.72 | 0.786 | 0.861 | 0.619 | 0.378 | 0.463 | 0.614 | 0.541 | 0.546 | 0.373 | 0.59 | 0.468 | 0.472 | 0.455 | 0.287 | 0.304 | 0.378 | 0.335 | 0.294 |
| NCI-H1563 | – | – | – | – | – | 1.17 | 1.18 | 0.947 | 0.792 | 0.724 | 0.931 | 0.802 | 0.778 | 0.674 | 0.71 | 0.962 | 0.941 | 0.964 | 0.941 | 1.01 |
| HCC-15 | 0.699 | 0.612 | 0.71 | 0.675 | 0.634 | 0.981 | 0.968 | 0.921 | 0.981 | 0.936 | 1.01 | 0.997 | 1.04 | 1.08 | 1.06 | 0.813 | 0.923 | 0.884 | 0.849 | 0.839 |
| EKVX | 0.668 | 0.828 | 0.824 | 0.812 | 0.838 | 0.776 | 0.859 | 1.17 | 1.05 | 1.05 | 0.993 | 1.06 | 1.27 | 0.959 | 1.07 | 0.834 | 0.78 | 0.869 | 0.784 | 0.771 |
| NCI-H2087 | 0.484 | 0.646 | 0.57 | 0.631 | 0.447 | 0.973 | 0.886 | 0.988 | 0.922 | 0.881 | 0.725 | 0.699 | 0.806 | 0.848 | 0.602 | 0.965 | 1.3 | 1.09 | 1.11 | 1.2 |
| LK-2 | 0.739 | 0.798 | 0.758 | 0.702 | 0.348 | 0.519 | 0.438 | 0.242 | 0.214 | 0.171 | – | – | – | – | – | 1.17 | 1.1 | 1.08 | 0.984 | 0.946 |
| NCI-H1437 | 0.584 | 0.648 | 0.623 | 0.643 | 0.653 | 0.999 | 0.995 | 1.04 | 1.05 | 1.06 | 0.521 | 0.56 | 0.412 | 0.536 | 0.462 | 0.964 | 1.04 | 1.03 | 0.936 | 0.844 |

From the supplement of paper PMC10307832
